Measurements: US11716992B2, “5A5B6C tricyclic spirolactone derivative, preparation method therefor and use thereof” (NANKAI UNIVERSITY, priority 2017, dated 2023)
Several values for one entry are separate records, joined by “and”; a condition that tells them apart may be missing. Equal entries are not always repeated. Where two headings read alike, the source gives them in different places.

Assays:
[1] = system: Mythimna separate (Walker); experiment: Insecticidal activity against Mythimna separate (Walker); assay type: in vivo; details: Mythimna, 100 μg/mL; read-out: insecticidal activity, Mythimna separate (Walker)
[2] = system: Helicoverpa armigera (Hübner); experiment: Insecticidal activity against Helicoverpa armigera (Hübner); assay type: in vivo; details: Helicoverpa armigera; 100 μg/mL; read-out: insecticidal activity, Helicoverpa armigera (Hübner)
Ostrinia furnacalis = experiment: Insecticidal activity against Ostrinia furnacalis; assay type: in vivo; details: Ostrinia furnacalis; 100 μg/mL; read-out: insecticidal activity, Ostrinia furnacalis
Caenorhabditis elegans = experiment: Insecticidal activity against Caenorhabditis elegans; assay type: in vivo; details: 100 μg/mL; for pest or weed control at 100 µg/mL: Caenorhabditis elegans, read-out: insecticidal activity, Caenorhabditis elegans
Alternaria solani = experiment: Fungicidal activity, fungicide growth rate method, AS; assay type: cell-based; details: 50 μg/mL; for inhibition at 50 µg/mL: Alternaria solani, read-out: fungicidal activity (growth inhibition rate), AS
Botrytis cinerea = experiment: Fungicidal activity, fungicide growth rate method, BC; assay type: cell-based; details: 50 μg/mL; for inhibition at 50 µg/mL: Botrytis cinerea, read-out: fungicidal activity (growth inhibition rate), BC
Cercospora arachidicola = experiment: Fungicidal activity, fungicide growth rate method, CA; assay type: cell-based; details: 50 μg/mL; for inhibition at 50 µg/mL: Mycosphaerella arachidis, read-out: fungicidal activity (growth inhibition rate), CA
wheat Gibberella zeae = experiment: microbe, parasite or virus in culture; assay type: cell-based; details: for inhibition at 50 µg/mL: Fusarium graminearum, read-out: fungicidal activity (growth inhibition rate), GZ, 50 μg/mL
[3] = system: Phytophthora infestans (Mont.) de Bary; experiment: microbe, parasite or virus in culture; assay type: cell-based; details: Phytophthora infestans, read-out: fungicidal activity (growth inhibition rate), PI, 50 μg/mL
Physalospora piricola = experiment: Fungicidal activity, fungicide growth rate method, PP; assay type: cell-based; details: 50 μg/mL; for inhibition at 50 µg/mL: read-out: fungicidal activity (growth inhibition rate), PP
Pellicularia sasakii = experiment: Fungicidal activity, fungicide growth rate method, PS; assay type: cell-based; details: 50 μg/mL; for inhibition at 50 µg/mL: read-out: fungicidal activity (growth inhibition rate), PS
Rhizoctonia cerealis = experiment: Fungicidal activity, fungicide growth rate method, RC; assay type: cell-based; details: Ceratobasidium cereale, 50 μg/mL; read-out: fungicidal activity (growth inhibition rate), RC
Sclerotinia sclerotiorum = experiment: Fungicidal activity, fungicide growth rate method, SS; assay type: cell-based; details: 50 μg/mL; for inhibition at 50 µg/mL: Sclerotinia sclerotiorum
Tobacco Mosaic Virus = experiment: Anti-TMV inactivation activity on tobacco plants; assay type: in vivo; design: concentration or dose not given beside the values; details: compound mixed with TMV solution 30 minutes, lesions checked three days later
[4] = system: Apis mellifera ligustica Spin; details: for Death number after 24 h / Death number after 48 h: per replicate of 10 bees

| SMILES | pest or weed control at 100 µg/mL [1] [%] | pest or weed control at 100 µg/mL [2] [%] | pest or weed control at 100 µg/mL (Ostrinia furnacalis) [%] | pest or weed control at 100 µg/mL (Caenorhabditis elegans) [%] | inhibition at 50 µg/mL (Alternaria solani) [%] | inhibition at 50 µg/mL (Botrytis cinerea) [%] | inhibition at 50 µg/mL (Cercospora arachidicola) [%] | inhibition at 50 µg/mL (wheat Gibberella zeae) [%] | inhibition at 50 µg/mL [3] [%] | inhibition at 50 µg/mL (Physalospora piricola) [%] | inhibition at 50 µg/mL (Pellicularia sasakii) [%] | inhibition at 50 µg/mL (Rhizoctonia cerealis) [%] | inhibition at 50 µg/mL (Sclerotinia sclerotiorum) [%] | TMV inactivation (anti-TMV activity) (Tobacco Mosaic Virus) [%] | Death rate after 48 h (%) ([4]; dosage 10.6 μg a.i./bee) | Death number after 24 h ([4]; dosage 10.6 μg a.i./bee) | Death number after 48 h ([4]; dosage 10.6 μg a.i./bee) | other results |
| --- | --- | --- | --- | --- | --- | --- | --- | --- | --- | --- | --- | --- | --- | --- | --- | --- | --- | --- |
| CCOC(=O)C(C(=O)OCC)C1CC(=O)[C@@]2(O)CC=CC[C@H]12 (stereo partly drawn) [Zyj06-113-2] | 20 | 5 | 15 | 7 | 3 | > 50 | 24 | 0 | 40 | 26 | 25 | 0 | 36 | 28 | – | – | – | Death rate after 48 h (%) ([4]; dosage 9.69 μg a.i./bee): 10.0%; Death number after 24 h ([4]; dosage 9.69 μg a.i./bee): 0; Death number after 48 h ([4]; dosage 9.69 μg a.i./bee): 0 and 2; Death rate after 48 h (%) ([4]; dosage 12.6 μg a.i./bee): 15.0%; Death number after 24 h ([4]; dosage 12.6 μg a.i./bee): 0; Death number after 48 h ([4]; dosage 12.6 μg a.i./bee): 1 and 2 |
| C=CC[C@@H]1C[C@]2(O)C(C(=O)OCC)C(=O)O[C@@]23CC=CC[C@H]13 (stereo partly drawn) [Zyj06-180] | 20 | 5 | 0 | 22 | 14 | > 50 | 30 | 20 | 19 | 15 | 45 | 0 | > 50 | 5 | 5.0 | 1 and 0 | 1 and 0 | – |
| C=CC[C@@H]1C[C@]2(O)C[C@H](O[C@]34CCO[C@@]35CC=CC[C@H]5[C@H](CC=C)C4)O[C@@]23CC=CC[C@H]13 [Zyj07-30-1] | 0 | 0 | 0 | – | – | – | – | – | 21 | – | – | 0 | – | 8 | 5.0 | 0 | 0 and 1 | insecticidal activity, Caenorhabditis elegans (Caenorhabditis elegans): 5%; fungicidal activity (growth inhibition rate), AS (Alternaria solani): 14%; fungicidal activity (growth inhibition rate), BC (Botrytis cinerea): 5%; fungicidal activity (growth inhibition rate), CA (Cercospora arachidicola): 41%; fungicidal activity (growth inhibition rate), GZ (wheat Gibberella zeae; 50 μg/mL): 0%; fungicidal activity (growth inhibition rate), PP (Physalospora piricola): 83%; fungicidal activity (growth inhibition rate), PS (Pellicularia sasakii): 22%; fungicidal activity (growth inhibition rate), SS (Sclerotinia sclerotiorum): 95%; Death rate after 48 h (%) ([4]; dosage 5.12 μg a.i./bee): 0%; Death number after 24 h ([4]; dosage 5.12 μg a.i./bee): 0; Death number after 48 h ([4]; dosage 5.12 μg a.i./bee): 0 |
| C=CC[C@@H]1C[C@]2(O)CCO[C@@]23C[C@@H]2O[C@@H]2C[C@H]13 [Zyj07-31-1] | 0 | 0 | 0 | 18 | 14 | 36 | 41 | 7 | 15 | > 50 | 0 | 7 | 0 | 11 | – | – | – | – |
| C=CC[C@@H]1C[C@]2(O)CCO[C@@]23C[C@H]2O[C@H]2C[C@H]13 [Zyj07-31-2] | > 30 | 0 | 0 | 8 | 22 | 18 | 27 | 3 | 21 | 31 | 18 | 21 | > 50 | 15 | – | – | – | Death rate after 48 h (%) ([4]; dosage 6.51 μg a.i./bee): 0%; Death number after 24 h ([4]; dosage 6.51 μg a.i./bee): 0; Death number after 48 h ([4]; dosage 6.51 μg a.i./bee): 0; Death rate after 48 h (%) ([4]; dosage 9.36 μg a.i./bee): 10.0%; Death number after 24 h ([4]; dosage 9.36 μg a.i./bee): 0; Death number after 48 h ([4]; dosage 9.36 μg a.i./bee): 1 |
| C=CC[C@@H]1C[C@]2(O)CCO[C@@]23CC[C@H](O)C[C@H]13 [Zyj07-33] | > 30 | 15 | 10 | 27 | 24 | > 50 | 46 | 27 | 16 | > 50 | 27 | 41 | 31 | 9 | – | – | – | – |
